Results: ChEMBL document CHEMBL1144575, “Design and synthesis of 3,5-disubstituted benzamide analogues of DNK333 as dual NK1/NK2 receptor probes” (Bioorg Med Chem Lett, 2007)
The source made the active and inactive calls. The rule behind the calls is not given here.

Columns and labels:
Format in all cases: functional, tissue-based
[1] = target: T1, Substance-K receptor (Cavia porcellus) (UniProt Q64077); assay: Antagonist activity at NK2 receptor in guinea pig trachea as inhibition of [beta-Ala8]NKA(4-10)-induced bronchoconstriction up to 1 uM
T1 sequence (whole entry): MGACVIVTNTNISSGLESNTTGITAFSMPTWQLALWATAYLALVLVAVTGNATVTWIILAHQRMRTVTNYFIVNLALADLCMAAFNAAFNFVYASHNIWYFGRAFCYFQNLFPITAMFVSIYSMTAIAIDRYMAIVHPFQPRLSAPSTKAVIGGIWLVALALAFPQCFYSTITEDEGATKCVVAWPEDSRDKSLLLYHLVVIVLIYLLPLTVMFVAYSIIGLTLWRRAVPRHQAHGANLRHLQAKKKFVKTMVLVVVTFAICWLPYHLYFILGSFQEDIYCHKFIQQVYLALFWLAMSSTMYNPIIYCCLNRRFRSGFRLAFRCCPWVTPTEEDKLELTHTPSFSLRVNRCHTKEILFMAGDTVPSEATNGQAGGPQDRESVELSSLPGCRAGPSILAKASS

[2] = target: Substance-P receptor (Cavia porcellus) (UniProt P30547); assay: Antagonist activity at NK1 receptor in guinea pig trachea as inhibition of ASM-SP-induced bronchoconstriction up to 1 uM
Sequence of Substance-P receptor (Cavia porcellus) (P30547 whole entry): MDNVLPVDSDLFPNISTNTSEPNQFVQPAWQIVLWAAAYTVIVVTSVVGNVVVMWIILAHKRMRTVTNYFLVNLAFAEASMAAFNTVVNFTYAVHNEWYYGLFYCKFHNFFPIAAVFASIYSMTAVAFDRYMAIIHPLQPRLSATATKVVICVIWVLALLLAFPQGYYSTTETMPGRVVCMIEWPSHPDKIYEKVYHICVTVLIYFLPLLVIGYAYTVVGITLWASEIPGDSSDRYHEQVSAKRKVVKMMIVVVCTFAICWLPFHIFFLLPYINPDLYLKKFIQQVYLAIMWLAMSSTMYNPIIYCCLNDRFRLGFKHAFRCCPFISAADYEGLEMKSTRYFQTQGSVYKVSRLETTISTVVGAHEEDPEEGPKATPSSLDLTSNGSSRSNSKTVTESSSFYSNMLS

[3] = target: Substance-P receptor (Cavia porcellus) (UniProt P30547); assay: Antagonist activity at NK1 receptor in guinea pig trachea as inhibition of ASM-SP-induced bronchoconstriction
[4] = target: T1, Substance-K receptor (Cavia porcellus); assay: Antagonist activity at NK2 receptor in guinea pig trachea as inhibition of [beta-Ala8]NKA(4-10)-induced bronchoconstriction relative to control; parameters: scale not given: the % may be the effect or the level left
[5] = target: T1, Substance-K receptor (Cavia porcellus); assay: Antagonist activity at NK2 receptor in guinea pig trachea as inhibition of [beta-Ala8]NKA(4-10)-induced bronchoconstriction
[6] = target: Substance-P receptor (Cavia porcellus) (UniProt P30547); assay: Antagonist activity at NK1 receptor in guinea pig trachea as inhibition of ASM-SP-induced bronchoconstriction relative to control; parameters: scale not given: the % may be the effect or the level left

Row | Structure (SMILES) | Activity [1] | Activity [2] | pKb [3] | Activity [4] [%] | pKb [5] | Activity [6] [%]
1 | CN(C(=O)c1cc(N)cc(N)c1)[C@@H](/C=C/C(=O)N[C@@H]1CCCCNC1=O)Cc1ccc(Cl)c(Cl)c1 | inactive | inactive | – | – | – | –
2 | CN(C(=O)c1cc(N=C=S)cc(N=C=S)c1)[C@@H](/C=C/C(=O)N[C@@H]1CCCCNC1=O)Cc1ccc(Cl)c(Cl)c1 | inactive | inactive | – | – | – | –
3 | CN(C(=O)c1cc(C(F)(F)F)cc(C(F)(F)F)c1)[C@@H](/C=C/C(=O)N[C@@H]1CCCCNC1=O)Cc1ccc(Cl)c(Cl)c1 | – | – | 9.2 | 97 | 7.43 | 89.4
4 | CN(C(=O)c1cc([N+](=O)[O-])cc([N+](=O)[O-])c1)[C@@H](/C=C/C(=O)N[C@@H]1CCCCNC1=O)Cc1ccc(Cl)c(Cl)c1 | – | – | 8.4 | 96.1 | 7.87 | 96.1

Second part, the molecule after the results:

Row | Activity [1] | Activity [2] | pKb [3] | Activity [4] [%] | pKb [5] | Activity [6] [%] | Structure (SMILES)
5 | inactive | inactive | – | – | – | – | CN(C(=O)c1cc(NC(=O)CBr)cc(NC(=O)CBr)c1)[C@@H](/C=C/C(=O)N[C@@H]1CCCCNC1=O)Cc1ccc(Cl)c(Cl)c1
6 | inactive | inactive | – | – | – | – | CC(=O)Nc1cc(NC(C)=O)cc(C(=O)N(C)[C@@H](/C=C/C(=O)N[C@@H]2CCCCNC2=O)Cc2ccc(Cl)c(Cl)c2)c1
7 | inactive | inactive | – | – | – | – | COC(=S)Nc1cc(NC(=S)OC)cc(C(=O)N(C)[C@@H](/C=C/C(=O)N[C@@H]2CCCCNC2=O)Cc2ccc(Cl)c(Cl)c2)c1
